Laboratory results as given in ChEMBL document CHEMBL5029160, “An Activity-Based Probe for Cathepsin K Imaging with Excellent Potency and Selectivity” (J Med Chem, 2021).
Active and inactive are the calls of the source. The calls are words filed in the database; no cut-off is given here.

Key:
[1] = target: T1, Cathepsin K (Homo sapiens) (UniProt P43235); assay: Inhibition of human cathepsin K assessed as ratio of Kinact/Ki using Z-Phe-Arg-pNA as substrate incubated for 60 mins by fluorometric assay
T1 sequence (whole entry): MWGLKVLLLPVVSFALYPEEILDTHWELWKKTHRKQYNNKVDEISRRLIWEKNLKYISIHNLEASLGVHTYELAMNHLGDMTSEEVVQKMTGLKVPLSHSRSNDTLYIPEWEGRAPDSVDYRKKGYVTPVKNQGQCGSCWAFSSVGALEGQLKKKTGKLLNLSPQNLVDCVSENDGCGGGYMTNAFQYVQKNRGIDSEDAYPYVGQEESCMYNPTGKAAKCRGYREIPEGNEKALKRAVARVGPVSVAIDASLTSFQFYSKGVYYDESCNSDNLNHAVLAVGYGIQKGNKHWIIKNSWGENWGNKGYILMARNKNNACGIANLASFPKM

[2] = target: Procathepsin L (Homo sapiens) (UniProt P07711); assay: Inhibition of human cathepsin L assessed as residual activity using Z-Phe-Arg-pNA as substrate incubated for 60 mins by fluorometric assay; parameters: concentration or dose not given beside the values
Chain of Procathepsin L (Homo sapiens) (P07711 114-333 limits assumed): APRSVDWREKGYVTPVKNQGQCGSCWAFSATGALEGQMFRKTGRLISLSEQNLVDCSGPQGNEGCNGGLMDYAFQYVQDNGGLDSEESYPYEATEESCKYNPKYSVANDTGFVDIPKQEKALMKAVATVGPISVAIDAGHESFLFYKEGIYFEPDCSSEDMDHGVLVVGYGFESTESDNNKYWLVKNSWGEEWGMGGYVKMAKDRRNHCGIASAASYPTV

[3] = target: Cathepsin B (Homo sapiens) (UniProt P07858); assay: Inhibition of human cathepsin B assessed as residual activity using Z-Arg-Arg-pNA as substrate incubated for 60 mins by fluorometric assay; parameters: concentration or dose not given beside the values
[4] = target: Cathepsin S (Homo sapiens) (UniProt P25774); assay: Inhibition of human cathepsin S assessed as ratio of Kinact/Ki using Z-Phe-Val-Arg-pNA as substrate incubated for 60 mins by fluorometric assay
Chain of Cathepsin S (Homo sapiens) (P25774 115-331 limits assumed): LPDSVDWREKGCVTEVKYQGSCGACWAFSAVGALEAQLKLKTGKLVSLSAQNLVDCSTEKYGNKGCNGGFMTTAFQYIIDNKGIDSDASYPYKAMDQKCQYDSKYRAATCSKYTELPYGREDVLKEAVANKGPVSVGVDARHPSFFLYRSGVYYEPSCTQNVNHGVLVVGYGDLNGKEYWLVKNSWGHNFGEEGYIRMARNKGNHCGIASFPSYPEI

[5] = target: Procathepsin L (Homo sapiens) (UniProt P07711); assay: Inhibition of human cathepsin L assessed as ratio of Kinact/Ki using Z-Phe-Arg-pNA as substrate incubated for 60 mins by fluorometric assay
[6] = target: Cathepsin S (Homo sapiens) (UniProt P25774); assay: Inhibition of human cathepsin S assessed as residual activity using Z-Phe-Val-Arg-pNA as substrate incubated for 60 mins by fluorometric assay
[7] = target: Cathepsin B (Homo sapiens) (UniProt P07858); assay: Inhibition of human cathepsin B assessed as ratio of Kinact/Ki using Z-Arg-Arg-pNA as substrate incubated for 60 mins by fluorometric assay
[8] = target: T1, Cathepsin K (Homo sapiens); assay: Binding affinity to Cathepsin K in human U2OS cells at 1 uM measured after 16 hrs by SDS-PAGE; type: cell-based
[9] = target: T1, Cathepsin K (Homo sapiens); assay: Binding affinity to Cathepsin K in human U2OS cells at 1 uM measured after 24 hrs by SDS-PAGE; type: cell-based
[10] = target: T1, Cathepsin K (Homo sapiens); assay: Binding affinity to Cathepsin K in human U2OS cells at 1 uM pretreated with E-64d for 1 hr followed by compound addition and measured after 24 hrs by SDS-PAGE; type: cell-based
[11] = target: T1, Cathepsin K (Homo sapiens); assay: Binding affinity to recombinant human Cathepsin K at 5 uM pretreated with E64/K11777 pan-cathepsin inhibitor s for 15 mins followed by compound addition and measured after 1 hr by SDS-PAGE; settings: time 75.0 min
[12] = Drug uptake in human U2OS cells […] at 1 uM after 16 hrs by LysoTracker staining based fluorescence microscopy; type: ADME, subcellular
[13] = target: T1, Cathepsin K (Homo sapiens); assay: Inhibition of recombinant human Cathepsin K at 5 uM using Z-Phe-Arg-pNA as substrate incubated for 1 hr in presence of HEK293 cell lysate by SDS-PAGE; type: subcellular
[14] = target: T1, Cathepsin K (Homo sapiens); assay: Binding affinity to Cathepsin K in human U2OS cells at 1 uM measured after 4 hrs by SDS-PAGE; type: cell-based

SMILES | Ratio [1] | Activity [2] | Activity [3] | Ratio [4] | Ratio [5] | Activity [6] | Ratio [7] | Activity [8] | Activity [9] | Activity [10] | Activity [11] | Drug uptake [12] | inhibition [13] | Activity [14]
CCCC[C@H](NC(=O)CCCC[N+]1=C(/C=C/C=C/C=C2/N(C)c3ccccc3C2(C)C)C(C)(C)c2ccccc21)C(=O)N[C@@H](CC(C)C)C(=O)NC/C=C/C(=O)N(Cc1ccccc1)Cc1ccccc1 | 17900 M⁻¹ s⁻¹ | 91% | 96% | 556 M⁻¹ s⁻¹ | – | – | – | – | – | – | – | – | – | –
CC(C)C[C@H](NC(=O)c1cc2cc3c4c(c2oc1=O)CCCN4CCC3)C(=O)NC/C=C/C(=O)N(Cc1ccccc1)Cc1ccccc1 | 9550 M⁻¹ s⁻¹ | 89% | 96% | – | 2820 M⁻¹ s⁻¹ | 80% | 365 M⁻¹ s⁻¹ | – | – | – | – | – | – | –
CC(C)C[C@H](NC(=O)OC(C)(C)C)C(=O)NC/C=C/C(=O)N(Cc1ccccc1)Cc1ccccc1 | 10600 M⁻¹ s⁻¹ | 83% | 91% | 291 M⁻¹ s⁻¹ | – | – | – | – | – | – | – | – | – | –
CC(C)C[C@H](NC(=O)CCCC[N+]1=C(/C=C/C=C/C=C2/N(C)c3ccccc3C2(C)C)C(C)(C)c2ccccc21)C(=O)NC/C=C/C(=O)N(Cc1ccccc1)Cc1ccccc1.[Cl-] | 35300 M⁻¹ s⁻¹ | 89% | 96% | 505 M⁻¹ s⁻¹ | – | – | – | Active | Active | inactive | inactive | Active | Active | Active
CC(C)C[C@H](NC(=O)c1ccc(-c2cc3cc4c5c(c3oc2=O)CCCN5CCC4)cc1)C(=O)NC/C=C/C(=O)N(Cc1ccccc1)Cc1ccccc1 | 84200 M⁻¹ s⁻¹ | – | – | 1510 M⁻¹ s⁻¹ | – | – | – | – | – | – | – | – | – | –
CCCC[C@H](NC(=O)OC(C)(C)C)C(=O)N[C@@H](CC(C)C)C(=O)NC/C=C/C(=O)N(Cc1ccccc1)Cc1ccccc1 | 6440 M⁻¹ s⁻¹ | 76% | 91% | 485 M⁻¹ s⁻¹ | – | – | – | – | – | – | – | – | – | –
